Measurements from US20230304064A1, “AUTOMATED, DIGITAL DISPENSING PLATFORM FOR MICRODILUTION ANTIMICROBIAL SUSCEPTIBILITY TESTING” (priority 2016, published 2023).
In brackets after ≈: the same amount, converted by molar mass. Where two headings read alike, the source gives them in different places.

Columns and labels:
[1] = tested on: carbapenem-resistant Klebsiella pneumoniae clinical isolates (blaKPC); assay: DDM (digital dispensing method) MIC testing of CRE isolates; assay type: cell-based; details: for MIC: Klebsiella pneumoniae, read-out: DDM modal MICs
Protocol: (§1) Bacterial strains: The 10 de-identified CRE clinical isolates used in the study were collected at our institution under Institutional Review Board-approved protocols and were sequenced through the carbapenem-resistant Enterobacteriaceae genome initiative at the Broad Institute (Cambridge, MA). All contained a Klebsiella pneumoniae carbapenemase (blaKPC) gene and were colony-purified, minimally passaged, and stored at -80° C. prior to use in this study.
(§2) After incubation, bacterial growth was quantified by measurement of OD600 using an Epoch (BioTek, Winooski, VT) or Spark 10 M microplate reader (Tecan, Morrisville, NC). An OD600 reading of 0.08 or greater (approximately twice typical background readings in wells containing broth alone) was considered indicative of bacterial growth (as also appreciable by visual assessment).
(§3) Precision and accuracy. […] Modal DDM MICs were calculated by taking the mode of all DDM MIC measurements obtained for a given antibiotic-strain combination, inclusive of initial MIC titrations and single-antibiotic rows/columns in synergy arrays (Table 5).

[2] = tested on: carbapenem-resistant Escherichia coli clinical isolates (blaKPC); assay: as above; assay type: cell-based; details: for MIC: Escherichia coli, read-out: DDM modal MICs
Protocol: as §1, §2, §3

[3] = tested on: E. coli ATCC 25922; assay: Microscopy-based AST (MAST): cell morphology at the MIC
[4] = tested on: eighty de-identified Enterobacteriaceae clinical isolates; assay: organism not typed; assay type: cell-based; details: for Non-susceptible strains (%) / Non-susceptible strains n: eighty clinical isolates, reference microdilution, CLSI criteria, EUCAST for colistin
Protocol: K. pneumonia BIDMC12A is a previously described, carbapenem resistant clinical isolate (14) expressing a KPC-3 carbapenemase. The eighty de-identified Enterobacteriaceae clinical isolates (Table 1) used for verification studies were collected at our institution under IRB-approved protocols. All strains were minimally passaged and stored at -80° C. prior to use in this study.
Verification study: Digital dispensing and reference method testing were performed in parallel using the same inoculum preparation. Microdilution reference panels were pre-prepared and stored at -80° C. until use (less than 2 weeks). D300 test method panels were prepared fresh each day of use.
Accuracy was evaluated using established guidelines (16, 17). The MIC determined by the digital dispensing method was compared with the MIC determined by the broth microdilution reference method. Essential agreement, overall essential agreement, and categorical agreement were evaluated as described in the precision study.

[5] = tested on: E. coli ATCC 25922; details: CLSI quality control range; cited from earlier work
[6] = tested on: E. coli ATCC 25922; assay: MIC testing by broth microdilution and D300 digital dispensing (precision study); details: Escherichia coli, ATCC25922, read-out: reference MIC
[7] = tested on: P. mirabilis ATCC 702; assay: as above; details: Proteus mirabilis, ATCC702, read-out: reference MIC
[8] = in vivo; cited from earlier work
[9] = tested on: S. aureus; assay: Automated microscopy cell counting at inhibitory and sub-inhibitory antibiotic concentrations; assay type: cell-based, Staphylococcus aureus; details: 4 hours
Protocol: We performed preliminary automated imaging experiments on the Cell Observer microscope (Zeiss, Oberkochen, Germany) (37° C., 640x magnification, DIC). For these experiments, we utilized E. coli ATCC 25922 and S. aureus ATCC 25923 (FIG. 5), prototypical Gram-negative and Gram-positive pathogens. […] Therefore, we conducted automated imaging of the center of 20 wells using 20-50 z-slices of approximately 1 µm thickness. Each image represented approximately 43,500 µm^2. After collapsing z-slices into a single image per well, cells were readily detectable and distributed evenly throughout the field at a density of 10-30 cells per 1000 µm^2 in all wells evaluated.
As proof of concept and preliminary data for image analysis-based direct cell counting, we utilized a machine learning algorithm (Trainable Weka as contained within the Fiji implementation of ImageJ) (Schindelin et al., Nature Methods 9:676-682 (2012)). A training set of 200 manually segmented S. aureus cells was used to establish a model for cell detection. This model accepts raw image data as input (FIG. 7A), classifies each pixel of an image as containing “cells” or “background” resulting in a segmented image (FIG. 7B). The segmented image is then converted to a black and white binary format. A watershed algorithm refines the segmentation by defining borders where two or more cells are in contact with one another and prevents later erroneous single counting of these otherwise fused objects (FIG. 7C). The particle analysis function of ImageJ is then used to identify particles >0.25 µm^2 as individual bacteria (FIG. 7D). Identified bacteria are subsequently counted and their aggregate surface area calculated.
Using our cell counting model, we compared images of S. aureus grown on inhibitory and sub-inhibitory concentrations of antibiotics. […] At the same time point we observed that E. coli cells in wells with sub-inhibitory concentrations of antimicrobial formed large microcolonies, making analysis of individual cells difficult. In cases where individual cells could not be segmented, a machine learning algorithm similar to that outlined in (d) reliably quantifies relative cell coverage in each field.

[10] = tested on: Klebsiella pneumoniae strains expressing extended spectrum β-lactamases; details: cited from earlier work
[11] = tested on: Klebsiella pneumoniae strains expressing extended spectrum β-lactamases; details: cited from earlier work; remark: listed apart in the source

## O=C(N[C@H](CO)[C@H](O)c1ccc([N+](=O)[O-])cc1)C(Cl)Cl [CHL, chloramphenicol]
[1]; BIDMC 10, KPN, KPC type 3
  MIC: > 64 µg/mL
[1]; BIDMC 12A, KPN, KPC type 3
  MIC: 64 µg/mL
[2]; BIDMC 6, ECO, KPC type 2
  MIC: 8 µg/mL
[2]; BIDMC 9, ECO, KPC type 2
  MIC: 8 µg/mL
[2]; BIDMC 15, ECO, KPC type 2
  MIC: 8 µg/mL
[2]; BIDMC 17A, ECO, KPC type 2
  MIC: 8 µg/mL
[2]; BIDMC 20A, ECO, KPC type 3
  MIC: 16 µg/mL

## O=C(O)c1cn(C2CC2)c2cc(N3CCNCC3)c(F)cc2c1=O [Ciprofloxacin (CIP), Ciprofloxacin]
[3]; MAST, 2-hour incubation
  cell morphology at the MIC: elongated cells that failed to divide

## Gentamicin [Gentamicin (GEN)]
[1]; BIDMC 4, KPN, KPC type 3
  DDM modal MICs: 32 mg/L
[1]; BIDMC 5, KPN, KPC type 3
  DDM modal MICs: 32 mg/L
[1]; BIDMC 10, KPN, KPC type 3
  DDM modal MICs: 32 mg/L
[1]; BIDMC 12A, KPN, KPC type 3
  DDM modal MICs: 1 mg/L
[1]; BIDMC 18A, KPN, KPC type 2
  DDM modal MICs: 64 mg/L
[2]; BIDMC 6, ECO, KPC type 2
  DDM modal MICs: >32 mg/L
[2]; BIDMC 9, ECO, KPC type 2
  DDM modal MICs: >32 mg/L
[2]; BIDMC 15, ECO, KPC type 2
  DDM modal MICs: 64 mg/L
[2]; BIDMC 17A, ECO, KPC type 2
  DDM modal MICs: >32 mg/L
[2]; BIDMC 20A, ECO, KPC type 3
  DDM modal MICs: 0.5 mg/L
[4]
  Non-susceptible strains (%): 31.3%
  Non-susceptible strains n: 25
[3]; MAST, 2-hour incubation
  cell morphology at the MIC: blocked cell growth, but did not appreciably alter morphology

## Cc1nnc(SCC2=C(C(=O)O)N3C(=O)[C@@H](NC(=O)Cn4cnnn4)[C@H]3SC2)s1 [Cefazolin (CFZ), Cefazolin]
[5]
  quality control range (MIC): 1 to 4 µg/mL
[6]
  MIC: 2 µg/mL (≈ 4.4 µM)
[7]
  MIC: 4 µg/mL (≈ 8.8 µM)

## CN(C)c1ccc(O)c2c1C[C@H]1C[C@H]3[C@H](N(C)C)C(O)=C(C(N)=O)C(=O)[C@@]3(O)C(O)=C1C2=O [MIN, minocycline]
[1]; BIDMC 4, KPN, KPC type 3
  MIC: 8 µg/mL
[1]; BIDMC 5, KPN, KPC type 3
  MIC: 16 µg/mL
[1]; BIDMC 10, KPN, KPC type 3
  MIC: 4 µg/mL
[1]; BIDMC 12A, KPN, KPC type 3
  MIC: 4 µg/mL
[1]; BIDMC 18A, KPN, KPC type 2
  MIC: 2 µg/mL
[2]; BIDMC 6, ECO, KPC type 2
  MIC: 1 µg/mL
[2]; BIDMC 9, ECO, KPC type 2
  MIC: 1 µg/mL
[2]; BIDMC 15, ECO, KPC type 2
  MIC: 1 µg/mL
[2]; BIDMC 17A, ECO, KPC type 2
  MIC: 1 µg/mL
[2]; BIDMC 20A, ECO, KPC type 3
  MIC: 4 µg/mL
[8]
  serum concentrations: higher serum concentrations than tigecycline
  side effects: generally favorable side-effect profile

## CN(C)c1cc(NC(=O)CNC(C)(C)C)c(O)c2c1C[C@H]1C[C@H]3[C@H](N(C)C)C(O)=C(C(N)=O)C(=O)[C@@]3(O)C(O)=C1C2=O [tigecycline]
[8]
  side effects: significant rates of nausea and vomiting
  urinary excretion: limited urinary excretion

## CC1(C)S[C@@H]2[C@H](NC(=O)[C@H](N)c3ccccc3)C(=O)N2[C@H]1C(=O)O [Ampicillin (AMP), Ampicillin]
[4]
  Non-susceptible strains (%): 81.3%
  Non-susceptible strains n: 65
[9]; 0.5 × the MIC
  area occupied by cells: 555 µm^2
  cells detected: 242 cells
[9]
  reduction of cell numbers at the MIC vs 0.5 × the MIC: 5 fold
[9]; at the MIC
  area occupied by cells: 47 µm^2
  cells detected: 51 cells

## CO[C@H]1/C=C/O[C@@]2(C)Oc3c(C)c(O)c4c(O)c(c(/C=N/N5CCN(C)CC5)c(O)c4c3C2=O)NC(=O)/C(C)=C\C=C\[C@H](C)[C@H](O)[C@@H](C)[C@@H](O)[C@@H](C)[C@H](OC(C)=O)[C@@H]1C [RIF, rifampin]
[1]; BIDMC 4, KPN, KPC type 3
  MIC: 32 µg/mL
[1]; BIDMC 5, KPN, KPC type 3
  MIC: 32 µg/mL
[1]; BIDMC 10, KPN, KPC type 3
  MIC: 32 µg/mL
[1]; BIDMC 12A, KPN, KPC type 3
  MIC: 32 µg/mL
[1]; BIDMC 18A, KPN, KPC type 2
  MIC: 16 µg/mL
[2]; BIDMC 6, ECO, KPC type 2
  MIC: 16 µg/mL
[2]; BIDMC 9, ECO, KPC type 2
  MIC: 16 µg/mL
[2]; BIDMC 15, ECO, KPC type 2
  MIC: 32 µg/mL
[2]; BIDMC 17A, ECO, KPC type 2
  MIC: 32 µg/mL
[2]; BIDMC 20A, ECO, KPC type 3
  MIC: 16 µg/mL

## C[C@@H]1O[C@@H]1P(=O)(O)O [FOF, fosfomycin]
[1]; BIDMC 4, KPN, KPC type 3
  MIC: 128 µg/mL
[1]; BIDMC 5, KPN, KPC type 3
  MIC: 8 µg/mL
[1]; BIDMC 10, KPN, KPC type 3
  MIC: 64 µg/mL
[1]; BIDMC 12A, KPN, KPC type 3
  MIC: 8 µg/mL
[1]; BIDMC 18A, KPN, KPC type 2
  MIC: 4 µg/mL
[2]; BIDMC 6, ECO, KPC type 2
  MIC: 0.5 µg/mL
[2]; BIDMC 9, ECO, KPC type 2
  MIC: 0.5 µg/mL
[2]; BIDMC 15, ECO, KPC type 2
  MIC: 0.5 µg/mL
[2]; BIDMC 17A, ECO, KPC type 2
  MIC: 0.5 µg/mL
[2]; BIDMC 20A, ECO, KPC type 3
  MIC: 1 µg/mL

## C[C@@H](O)[C@H]1C(=O)N2C(C(=O)O)=C(S[C@@H]3CN[C@H](C(=O)N(C)C)C3)[C@H](C)[C@H]12 [Meropenem (MEM), Meropenem]
[1]; BIDMC 4, KPN, KPC type 3
  MIC: 32 µg/mL
[1]; BIDMC 5, KPN, KPC type 3
  MIC: 8 µg/mL
[1]; BIDMC 10, KPN, KPC type 3
  MIC: 4 µg/mL
[1]; BIDMC 12A, KPN, KPC type 3
  MIC: 8 µg/mL
[1]; BIDMC 18A, KPN, KPC type 2
  MIC: 32 µg/mL
[2]; BIDMC 6, ECO, KPC type 2
  MIC: 2 µg/mL
[2]; BIDMC 9, ECO, KPC type 2
  MIC: 4 µg/mL
[2]; BIDMC 15, ECO, KPC type 2
  MIC: 4 µg/mL
[2]; BIDMC 17A, ECO, KPC type 2
  MIC: 2 µg/mL
[2]; BIDMC 20A, ECO, KPC type 3
  MIC: 1 µg/mL
[10]
  in vitro inoculum effect: insignificant inoculum effect
[11]; high dose inoculum
  survival of infected mice after treatment: survived
[11]; low bacterial inoculum
  survival of infected mice after treatment: survived
[4]
  Non-susceptible strains (%): 17.5%
  Non-susceptible strains n: 14
[4]; read-out: modal MIC
  MIC: 0.03 µg/mL (≈ 0.0782 µM)
[3]; E. coli after 2 hours, FIG. 13
  cell morphology at the MIC: swelling
[3]; MAST, 2-hour incubation
  cell morphology at the MIC: rounded sphereoplasts

## C[C@H]1COc2c(N3CCN(C)CC3)c(F)cc3c(=O)c(C(=O)O)cn1c23 [LVX, levofloxacin]
[1]; BIDMC 4, KPN, KPC type 3
  MIC: 128 µg/mL
[1]; BIDMC 5, KPN, KPC type 3
  MIC: > 64 µg/mL
[1]; BIDMC 10, KPN, KPC type 3
  MIC: 16 µg/mL
[1]; BIDMC 12A, KPN, KPC type 3
  MIC: 32 µg/mL
[1]; BIDMC 18A, KPN, KPC type 2
  MIC: 64 µg/mL
[2]; BIDMC 6, ECO, KPC type 2
  MIC: 16 µg/mL
[2]; BIDMC 9, ECO, KPC type 2
  MIC: 16 µg/mL
[2]; BIDMC 15, ECO, KPC type 2
  MIC: 32 µg/mL
[2]; BIDMC 17A, ECO, KPC type 2
  MIC: 16 µg/mL
[2]; BIDMC 20A, ECO, KPC type 3
  MIC: 32 µg/mL

## CN(C)[C@@H]1C(O)=C(C(N)=O)C(=O)[C@@]2(O)C(O)=C3C(=O)c4c(O)cccc4[C@@](C)(O)[C@H]3C[C@@H]12 [Tetracycline (TET), Tetracycline]
[4]
  Non-susceptible strains (%): 42.5%
  Non-susceptible strains n: 34
